Experimental data from patent US8765785B2, “Solifenacin salts” (Crystal Pharma, S.A.U., priority 2010, dated 2014).
Read-outs that look alike come from different tables or passages of the source.

Key:
Assay type in all cases: physicochemical
[1] = Conversion of the crystalline salt to the amorphous form (lyophilization, vacuum evaporation; PXRD, DSC); details: for solid form after lyophilization of an aqueous solution: freeze-drying, -60° C. under vacuum, 15 hours, PXRD and DSC
Experimental: (§1) 10 g of solifenacin succinate (example 2) were dissolved in 15 mL of water. The solution was frozen by nitrogen liquid and was placed in the freeze-drying equipment at −60° C. under vacuum.
10 g of solifenacin fumarate (example 1) were dissolved in 600 ml of water at 60° C. The solution was frozen by nitrogen liquid and was placed in the freeze-drying equipment at −60° C. under vacuum.
5 g of solifenacin fumarate (example 1) was dissolved in 50 ml of methanol (1% of water) and evaporated under vacuum at 50° C.

[2] = Stability of the solid salt on standing (colour, UV-HPLC method 2)
Experimental: HPLC Method 2: To Follow the End Points of the Reactions Performed and the Rest of the Impurities:
as §1

Solubility in water = assay: Solubility in water
Experimental: Therefore, when the procedure to obtain tablets comprising solifenacin fumarate is carried out by wet granulation, the presence of water is not such an important factor.
However, the low solubility of the solifenacin fumarate avoids this problem. The difference in solubility also makes it easier to obtain solid pharmaceutical compositions of solifenacin fumarate since the drying phase is reduced.

[3] = Stability of tablets of solifenacin salts over 0, 3 and 6 months (Example 9); details: for DESCRIPTION: film-coated tablets (Example 8); for course of the amount of F1 impurity: 6 month period
Experimental: To test the stability of solifenacin fumarate, tablets are prepared by wet granulation following the procedure disclosed in US 2008/039516, the contents of which are incorporated in their entirety. A specific example of preparing a tablet containing solifenacin fumarate is given in […] below.
25 parts by weight of Hypromellose (Pharmacoat 603) are dissolved and agitated in 130 parts of purified water with an air motor stirrer (IMA) to prepare a binder solution (at a concentration of 20.0% (w/v)). Then, 50 parts of solifenacin salt, 389 parts of lactose monohydrate (Granulac) and 128 parts of corn starch (C*PharmGel 03406) are mixed together (pre-mix) in a single pot granulator (IMA Zanchetta 3 L capacity).
The binder solution is sprayed over the pre-mix at room temperature with a flow rate of 60 ml/min, impeller speed of 300 rpm and chopper speed of 1500 rpm for wet granulation. After spraying, kneading takes place for 3 min with impeller speed of 300 rpm. After granulation, the granules are dried at a charged temperature of the jacket bowl of 80° C. under vacuum conditions, tilting movement of the bowl of 90° and intermittent speed (120 rpm) of the impeller for 120 seconds.
The granules are dried until a final moisture of 2.5%-1.0% has been reached. 6 parts of magnesium stearate are added to the dried granules for blending with a biconic mixer (SAR Labortecnic). Thereafter, the resulting mixture is compressed with a rotary tabletting machine (KILIAN IMA Pressima) with 6.0 mm punches at a compression pressure sufficient to achieve a hardness of the tablet of more than 50 N and a tablet weight of 60 mg.
The resulting tablets are coated in a non perforated pan (IMA, type HT25). Coating is performed with a solution prepared by dissolving 20 parts of Opadry II pink (Colorcon) in 200 parts of purified water using an air motor stirrer (IMA). Coating is achieved at a charge air temperature of 60-80° C., a pan rotation velocity of 6-13 rpm, and coating fluid feed rate of 16-40 ml/min for a 3.3% ratio of the component to the tablet weight, to obtain the film-coated tablet.
The stability of tablets formulated with solifenacin succinate and solifenacin fumarate, respectively, was tested in a side-by-side comparison. […] For both salts the amount of solifenacin was assayed by HPLC at 0, 3 and 6 months and the amount of “F1 impurity” was also measured. The results are provided in the tables below and are illustrated in FIGS. 9 and 10.

Row | Molecule | solid form after lyophilization of an aqueous solution [1] | DESCRIPTION ([3]; 3 MONTHS) | DESCRIPTION ([3]; 6 MONTHS) | DESCRIPTION ([3]; INITIAL) | ASSAY AMOUNT (amount of solifenacin by HPLC) ([3]; tablets, 3 MONTHS) | CHROMATOGRAPHIC IMPURITY (F1 impurity) ([3]; tablets, 3 MONTHS) | HARDNESS ([3]; tablets, 3 MONTHS) | LOSS ON DRYING ([3]; tablets, 3 MONTHS) | MEDIUM WEIGHT ([3]; tablets, 3 MONTHS) | ASSAY AMOUNT (amount of solifenacin by HPLC) ([3]; tablets, 6 MONTHS) | CHROMATOGRAPHIC IMPURITY (F1 impurity) ([3]; tablets, 6 MONTHS) | HARDNESS ([3]; tablets, 6 MONTHS) | LOSS ON DRYING ([3]; tablets, 6 MONTHS) | MEDIUM WEIGHT ([3]; tablets, 6 MONTHS) | course of the amount of F1 impurity ([3]; tablets) | ASSAY AMOUNT (amount of solifenacin by HPLC) ([3]; tablets, INITIAL) | CHROMATOGRAPHIC IMPURITY (F1 impurity) ([3]; tablets, INITIAL) | HARDNESS ([3]; tablets, INITIAL) | LOSS ON DRYING ([3]; tablets, INITIAL) | MEDIUM WEIGHT ([3]; tablets, INITIAL) | other results
1 | O=C(O[C@H]1CN2CCC1CC2)N1CCc2ccccc2[C@@H]1c1ccccc1 [solifenacin succinate] | quite easy to obtain the desired amorphous form | pink biconvex | pink biconvex | pink biconvex | 96.8% | <0.06% | 98N | 2.43% | 124.80 mg | 94.7% | 0.91% | 102N | 2.39% | 126.26 mg | increases in the 6 month period | 98.7% | <0.05% | 98N | 2.40% | 125.57 mg | colouring / instability on standing [2]: do not have this problem; solubility (Solubility in water): 727 mg/mL
2 | O=C(O[C@H]1CN2CCC1CC2)N1CCc2ccccc2[C@@H]1c1ccccc1 [amorphous form of solifenacin succinate, solifenacin succinate] | – | – | – | – | – | – | – | – | – | – | – | – | – | – | – | – | – | – | – | – | amount of new impurity with relative retention time 0.93 ([2]; left to stand for ten days, HPLC method 2): 0.14%; time until the white solid turned colored ([2]; solid on standing): 2 to 3 days; colour change of the white solid ([2]; three days after freeze-drying): turned brown-colored
3 | solifenacin fumarate | crystalline form | pink biconvex | pink biconvex | pink biconvex | 99.4% | <0.05% | 73N | 2.01% | 124.21 mg | 99.6% | <0.05% | 66N | 2.24% | 125.51 mg | remains at the constant low level | 98.2% | <0.05% | 75N | 2.05% | 124.54 mg | solid form after lyophilization of an aqueous solution ([1]; listed as fumarate salt): remains crystalline; solid form after evaporation under vacuum ([1]; methanol (1% of water), evaporated under vacuum at 50° C.): crystalline form; colouring / instability on standing ([2]; crystalline forms): do not have this problem; solubility in water (Solubility in water): 11.25 mg/mL; stability in tablets, conclusion in words ([3]; tablets, 6 month side-by-side comparison): much more stable than the succinate salt
